{"source": "ChEMBL document CHEMBL1148026", "about": "“Oxadiazole mannich bases: synthesis and antimycobacterial activity” (Bioorg Med Chem Lett, 2007)"}
{"tested_on": "Mycobacterium tuberculosis", "test": "Antimycobacterial activity against isoniazid-resistant Mycobacterium tuberculosis by agar dilution method using double dilution technique", "assay_type": "functional", "units": {"MIC": "µM"}}
{"smiles": "O=S(=O)(c1ccc(NC(c2ccccc2)n2nc(COc3cccc4ccccc34)oc2=S)cc1)c1ccc(NC(c2ccccc2)n2nc(COc3cccc4ccccc34)oc2=S)cc1", "note": "(stereo not given)", "MIC": 5.96}
{"smiles": "O=S(=O)(c1ccc(NC(c2ccccc2)n2nc(Cc3ccccc3)oc2=S)cc1)c1ccc(NC(c2ccccc2)n2nc(Cc3ccccc3)oc2=S)cc1", "note": "(stereo not given)", "MIC": 5.98}
{"smiles": "O=S(=O)(c1ccc(NC(Cc2ccco2)n2nc(COc3ccc4ccccc4c3)oc2=S)cc1)c1ccc(NC(Cc2ccco2)n2nc(COc3ccc4ccccc4c3)oc2=S)cc1", "note": "(stereo not given)", "MIC": 1.1}
{"smiles": "O=S(=O)(c1ccc(NC(Cc2ccco2)n2nc(COc3ccccc3)oc2=S)cc1)c1ccc(NC(Cc2ccco2)n2nc(COc3ccccc3)oc2=S)cc1", "note": "(stereo not given)", "MIC": 1.14}
{"smiles": "O=[N+]([O-])c1ccc(-c2nn(C(Nc3ccc(S(=O)(=O)c4ccc(NC(c5ccccc5)n5nc(-c6ccc([N+](=O)[O-])cc6)oc5=S)cc4)cc3)c3ccccc3)c(=S)o2)cc1", "note": "(stereo not given)", "MIC": 3.94}
{"smiles": "O=S(=O)(c1ccc(NC(c2ccccc2)n2nc(-c3ccc(Nc4ccccc4)cc3)oc2=S)cc1)c1ccc(NC(c2ccccc2)n2nc(-c3ccc(Nc4ccccc4)cc3)oc2=S)cc1", "note": "(stereo not given)", "MIC": 4.65}
{"smiles": "O=[N+]([O-])c1ccc(-c2nn(C(Cc3ccco3)Nc3ccc(S(=O)(=O)c4ccc(NC(Cc5ccco5)n5nc(-c6ccc([N+](=O)[O-])cc6)oc5=S)cc4)cc3)c(=S)o2)cc1", "note": "(stereo not given)", "MIC": 1.74}
{"smiles": "O=S(=O)(c1ccc(NC(Cc2ccco2)n2nc(-c3ccc(Nc4ccccc4)cc3)oc2=S)cc1)c1ccc(NC(Cc2ccco2)n2nc(-c3ccc(Nc4ccccc4)cc3)oc2=S)cc1", "note": "(stereo not given)", "MIC": 1.86}
{"smiles": "O=S(=O)(c1ccc(NC(Cc2ccco2)n2nc(COc3cccc4ccccc34)oc2=S)cc1)c1ccc(NC(Cc2ccco2)n2nc(COc3cccc4ccccc34)oc2=S)cc1", "note": "(stereo not given)", "MIC": 2.12}
{"smiles": "O=S(=O)(c1ccc(NC(Cc2ccco2)n2nc(Cc3ccccc3)oc2=S)cc1)c1ccc(NC(Cc2ccco2)n2nc(Cc3ccccc3)oc2=S)cc1", "note": "(stereo not given)", "MIC": 3.24}
{"smiles": "O=S(=O)(c1ccc(NC(c2ccccc2)n2nc(-c3ccccc3)oc2=S)cc1)c1ccc(NC(c2ccccc2)n2nc(-c3ccccc3)oc2=S)cc1", "note": "(stereo not given)", "MIC": 5.42}
{"smiles": "O=S(=O)(c1ccc(NC(c2ccccc2)n2nc(COc3ccccc3)oc2=S)cc1)c1ccc(NC(c2ccccc2)n2nc(COc3ccccc3)oc2=S)cc1", "note": "(stereo not given)", "MIC": 4.98}
{"smiles": "O=S(=O)(c1ccc(NC(c2ccccc2)n2nc(COc3ccc4ccccc4c3)oc2=S)cc1)c1ccc(NC(c2ccccc2)n2nc(COc3ccc4ccccc4c3)oc2=S)cc1", "note": "(stereo not given)", "MIC": 2.42}
{"smiles": "O=S(=O)(c1ccc(NC(Cc2ccco2)n2nc(-c3ccccc3)oc2=S)cc1)c1ccc(NC(Cc2ccco2)n2nc(-c3ccccc3)oc2=S)cc1", "note": "(stereo not given)", "MIC": 2.24}
{"smiles": "NNC(=O)c1ccncc1", "note": "[ISONIAZID]", "MIC": 11.4}
